Data reported in patent US11124500B2, “Disubstituted pyrazole compounds” (Eli Lilly and Company, priority 2019, dated 2021).

Legend:
human KHK-A = human KHK-A (Homo sapiens (Human), UniProt P50053); assay: KHK enzyme activity assay, human KHK-A (F1P production, RapidFire MS); type: biochemical; conditions: fructose 1.25 mM, ATP 150 μM; average ± SEM; read-out: hKHK-A IC50
Method: (§1) KHK Enzyme Activity Assay for Human KHK-C and Human KHK-A
(§2) The intrinsic potency for inhibition of KHK C or A activity may be measured using an enzymatic assay which measures the production of FIP. Compounds are prepared in DMSO and tested in a 10-point concentration curve, to create 3-fold serial dilutions of the compounds in a 96-well plate ranging from 20 μM to 1.02 nM. Enzyme is prepared in assay buffer [50 mM 4-(2-hydroxyethyl)piperazine-1-ethanesulfonic acid (HEPES), 10 mM potassium chloride, 100 mM magnesium chloride, 2 mM tris(2-carboxyethyl)phosphine (TCEP), 0.01% n-octyl glucoside] and incubated with compounds at RT for 15 min. The reaction is carried out in 100 μL volumes containing substrate concentrations of fructose (250 μM for KHK-C assay and 1.25 mM for KHK-A assay) and ATP (150 μM for both isoforms); which are further incubated at RT for 20 min. The reaction is then halted by the addition of stop buffer; consisting of 0.2% formic acid and 1 μg/ml ^13C6-fructose-6-phosphate (^13C6-F6P) internal standard. Plates are stored in −20° C. until RapidFire MS analysis.
(§3) RapidFire MS Analysis for Quantitation of F1P
(§4) An Agilent 300 RapidFire automated extraction system (Agilent, Santa Clara, Calif.) with three HPLC quaternary pumps is coupled to an Agilent 6495 triple quadrupole mass spectrometer (Agilent Technologies, Santa Clara, Calif.) equipped with an electrospray ionization (ESI) interface source. The RapidFire Mass Spec system is equipped with a reusable RapidFire C18 (type C) solid-phase extraction (SPE) cartridge (G9205 Å).
(§5) Solvent A, used for sample loading and washing, is 6 mM octylamine (Acros Organics 129495000) brought to pH 5.0 using acetic acid. Solvent B, used for sample elution, is 20% water in ACN containing 0.1% formic acid. Samples are sequentially analyzed by aspirating 10 μL onto the collection loop under vacuum directly from multiwell plates. The 10 μL of sample is loaded onto the C18 cartridge and washed using solvent A at a flow rate of 1.25 mL/min for 5000 ms. The retained analytes are then eluted to the mass spectrometer using solvent B at a flow rate of 1.25 mL/min for 5000 ms. The system is re-equilibrated using solvent at flow rate of 1.25 mL/min for 2000 ms.
(§6) The triple quadrupole mass spectrometer is equipped with an ESI source and analytes are monitored using selected reaction monitoring (SRM) in negative mode [M−H]−. F1P is monitored at m/z 259.02/96.9 and ^13C6-fructose-6-phosphate is monitored at m/z 264.99/97. The area ratio values for F1P is calculated using ^13C6-fructose-6-phospate as internal standard.

human KHK-C = human KHK-C (Homo sapiens (Human), UniProt P50053); assay: KHK enzyme activity assay, human KHK-C (F1P production, RapidFire MS); type: biochemical; conditions: fructose 250 μM, ATP 150 μM; average ± SEM; read-out: hKHK-C IC50
Method: as §1, §2, §3, §4, §5, §6

[1] = Pharmacokinetics in Sprague Dawley rats; type: in vivo; conditions: plasma, rat, fasted; for bioavailability: PO 2 or 3 mg/kg vs IV 1 mg/kg
Method: (§7) Liquid Chromatography with Tandem Mass Spectrometry (LC-MS/MS) Method for Pharmacokinetic Assays: Samples are extracted using a protein precipitation by adding 180 μL of MeOH:ACN (1:1, v/v) containing an internal standard to 50 μL of plasma. Samples are then diluted with MeOH:Water (1:1, v/v) to get concentrations within standard curve range. Diluted samples are analyzed by LC-MS/MS using a Sciex API 4000 triple quadrupole mass spectrometer (Applied Biosystems/MDS; Foster City, Calif.) equipped with a TurboIonSpray interface, and operated in positive ion mode. The analytes are chromatographically separated using a ECHELON C18 4 um 20×2.1 mm column. LC conditions are Water/1 M ammonium bicarbonate, (2000:10, v/v) (Mobile Phase A), and MeOH/1 M ammonium bicarbonate, (2000:10, v/v) (Mobile Phase B).
Pharmacokinetics in Sprague Dawley Rats
(§8) The compound is administered by a single oral (PO; 2 or 3 mg/kg; volume of 10 mL/kg) or intravenous (IV; 1 mg/kg; volume of 1 mL/kg) dose in vehicle. Blood is collected from each animal at multiple time points between 0 and up to 48 hours post-dosage. The plasma concentrations of Example 1 and Example 2 are determined by a LC-MS/MS method as described above.

Pharmacokinetics in dogs = type: in vivo; conditions: beagle, plasma, dog, fed; for bioavailability: PO 2 or 3 mg/kg vs IV 1 mg/kg
Method: as §7
as §8, with “2” for “10”, “72” for “48”

[2] = administered for 6 weeks, subjects with NAFLD; cited from earlier work

Chain of human KHK-C (P50053 whole entry): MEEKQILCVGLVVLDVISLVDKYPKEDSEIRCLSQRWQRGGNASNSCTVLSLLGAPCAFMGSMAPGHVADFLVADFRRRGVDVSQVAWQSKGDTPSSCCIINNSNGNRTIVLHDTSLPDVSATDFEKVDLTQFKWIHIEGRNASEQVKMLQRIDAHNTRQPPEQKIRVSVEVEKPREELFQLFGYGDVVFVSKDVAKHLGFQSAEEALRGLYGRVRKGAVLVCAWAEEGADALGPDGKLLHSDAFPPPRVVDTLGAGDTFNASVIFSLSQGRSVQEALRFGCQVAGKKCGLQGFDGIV
Chain of human KHK-A (P50053 other isoform, or with tags, fused parts or gaps): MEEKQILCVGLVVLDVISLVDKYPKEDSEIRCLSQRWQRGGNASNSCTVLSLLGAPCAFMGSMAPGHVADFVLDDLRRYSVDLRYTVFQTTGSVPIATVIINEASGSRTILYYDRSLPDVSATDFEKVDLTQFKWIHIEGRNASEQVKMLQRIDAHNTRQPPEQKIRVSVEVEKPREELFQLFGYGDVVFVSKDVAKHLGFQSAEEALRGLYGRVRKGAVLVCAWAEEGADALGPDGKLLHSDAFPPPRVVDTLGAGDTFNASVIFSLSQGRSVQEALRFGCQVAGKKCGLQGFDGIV

| SMILES | IC50 (human KHK-A) [nM] | IC50 (human KHK-C) [nM] | further results |
| --- | --- | --- | --- |
| C[C@H]1CCN1c1nc(-c2cnn(CC(=O)N3CCNCC3)c2)cc(C(F)(F)F)n1 [Example 1, 2-[4-[2-[(2S)-2-Methylazetidin-1-yl]-6-(trifluoromethyl)pyrimidin-4-yl]pyrazol-1-yl]-1-piperazin-1-yl-ethanone] | 24.2 ± 2.9 | 20.7 ± 3.88 | bioavailability [1]: 83%; clearance ([1]; single IV dose 1 mg/kg): 5.86 mL/min/kg; half-life ([1]; single IV dose 1 mg/kg): 12.8 h; half-life ([1]; single PO dose 2 or 3 mg/kg): 12.9 h; bioavailability (Pharmacokinetics in dogs): 87%; clearance (Pharmacokinetics in dogs; single IV dose 1 mg/kg): 3.41 mL/min/kg; half-life (Pharmacokinetics in dogs; single IV dose 1 mg/kg): 28 h; half-life (Pharmacokinetics in dogs; single PO dose 2 or 3 mg/kg): 36.6 h |
| OC[C@H]1CCN1c1nc(-c2cnn(C3CCNCC3)c2)cc(C(F)(F)F)n1 [Example 2, [(2R)-1-[4-[1-(4-Piperidyl)pyrazol-4-yl]-6-(trifluoromethyl)pyrimidin-2-yl]azetidin-2-yl]methanol] | 98.2 ± 25 | 134 ± 43.1 | bioavailability [1]: 95%; clearance ([1]; single IV dose 1 mg/kg): 56.4 mL/min/kg; half-life ([1]; single IV dose 1 mg/kg): 4.29 h; half-life ([1]; single PO dose 2 or 3 mg/kg): 5.12 h; bioavailability (Pharmacokinetics in dogs): ~100%; clearance (Pharmacokinetics in dogs; single IV dose 1 mg/kg): 19.6 mL/min/kg; half-life (Pharmacokinetics in dogs; single IV dose 1 mg/kg): 10.3 h; half-life (Pharmacokinetics in dogs; single PO dose 2 or 3 mg/kg): 9.79 h |
| C[C@H]1CCN1c1nc(-c2cnn(C3CCNCC3O)c2)cc(C(F)(F)F)c1C#N (stereo partly drawn) [Example 27, 6-[1-(3-Hydroxy-4-piperidyl)pyrazol-4-yl]-2-[(2S)-2-methylazetidin-1-yl]-4-(trifluoromethyl)pyridine-3-carbonitrile] | 4.63 | 9.21 | – |
| C[C@H]1CCN1c1nc(-c2cnn(CC(=O)NCCN)c2)cc(C(F)(F)F)n1 [Example 28, N-(2-Aminoethyl)-2-[4-[2-[(2S)-2-methylazetidin-1-yl]-6-(trifluoromethyl)pyrimidin-4-yl]pyrazol-1-yl]acetamide] | 51 | 68 | – |
| C[C@H]1CN(C(=O)Cn2cc(-c3cc(C(F)(F)F)nc(N4CC[C@@H]4C)n3)cn2)CCN1 [Example 29, 2-[4-[2-[(2S)-2-Methylazetidin-1-yl]-6-(trifluoromethyl)pyrimidin-4-yl]pyrazol-1-yl]-1-[(3S)-3-methylpiperazin-1-yl]ethanone] | 103 | 38.6 | – |
| C[C@H]1CCN1c1nc(N2C[C@@H]3[C@@H](CC(=O)O)[C@@H]3C2)cc(C(F)(F)F)n1 [PF-06835919] | – | – | whole liver fat (magnetic resonance imaging-proton density fat fraction) [2]: reduces whole liver fat |

Continued, in another order:

| IC50 (human KHK-A) [nM] | IC50 (human KHK-C) [nM] | SMILES | further results |
| --- | --- | --- | --- |
| 57.8 | 46.3 | C[C@H]1CNCCN1C(=O)Cn1cc(-c2cc(C(F)(F)F)nc(N3CC[C@@H]3C)n2)cn1 [Example 30, 2-[4-[2-[(2S)-2-Methylazetidin-1-yl]-6-(trifluoromethyl)pyrimidin-4-yl]pyrazol-1-yl]-1-[(2S)-2-methylpiperazin-1-yl]ethanone] | – |
| 70.5 | 34.7 | C[C@H]1CCN1c1nc(-c2cnn(CC(=O)N3CCNC(C)(C)C3)c2)cc(C(F)(F)F)n1 [Example 31, 1-(3,3-Dimethylpiperazin-1-yl)-2-[4-[2-[(2S)-2-methylazetidin-1-yl]-6-(trifluoromethyl)pyrimidin-4-yl]pyrazol-1-yl]ethanone] | – |
| 41.5 | 13.3 | C[C@@H]1CN(C(=O)Cn2cc(-c3cc(C(F)(F)F)nc(N4CC[C@@H]4C)n3)cn2)[C@@H](C)CN1 [Example 32, 1-[(2S,5R)-2,5-Dimethylpiperazin-1-yl]-2-[4-[2-[(2S)-2-methylazetidin-1-yl]-6-(trifluoromethyl)pyrimidin-4-yl]pyrazol-1-yl]ethanone] | – |
| 3.63 ± 1.13 | 4.9 ± 1.31 | C[C@H]1CCN1c1nc(-c2cnn(C3CNC3)c2)cc(C(F)(F)F)n1 [Example 33, 4-[1-(Azetidin-3-yl)pyrazol-4-yl]-2-[(2S)-2-methylazetidin-1-yl]-6-(trifluoromethyl)pyrimidine] | – |
| 5.41 ± 6.13 | 3.71 ± 0.178 | C[C@H]1CCN1c1nc(-c2cnn(C3CN(C)C3)c2)cc(C(F)(F)F)n1 [Example 34, 2-[(2S)-2-Methylazetidin-1-yl]-4-[1-(1-methylazetidin-3-yl)pyrazol-4-yl]-6-(trifluoromethyl)pyrimidine] | – |
| 1.59 | 2.63 | C[C@H]1[C@H](O)CN1c1nc(-c2cnn(C3CN(C)C3)c2)cc(C(F)(F)F)n1 [Example 35, (2S,3R)-2-Methyl-1-[4-[1-(1-methylazetidin-3-yl)pyrazol-4-yl]-6-(trifluoromethyl)pyrimidin-2-yl]azetidin-3-ol] | – |
| 3.98 | 10 | CN1CC(n2cc(-c3cc(C(F)(F)F)nc(N4CC[C@@H]4CO)n3)cn2)C1 [Example 36, [(2R)-1-[4-[1-(1-Methylazetidin-3-yl)pyrazol-4-yl]-6-(trifluoromethyl)pyrimidin-2-yl]azetidin-2-yl]methanol] | – |
